Reference: patent US11603349B2, “Anti-fibrotic compounds” (Certa Therapeutics Pty Ltd, priority 2017, dated 2023)

Assays:
[1] = system: TGF-β induced [14C]-proline incorporation in rat mesangial cells; test: [14C]-proline incorporation assay (collagen biosynthesis); type: cell-based; conditions: Rattus norvegicus, Mesangial cell, 44 h
[2] = MTS tetrazolium reduction cell viability assay; conditions: rat, rat mesangial cells (1097/IRMC cells), TGF-β1 stimulated, CC50 (μM), vs 1% DMSO vehicle
[3] = inhibition of TGF-β1 (1 ng/ml) induced [14C]-proline incorporation, IRMC cells

Structure (SMILES) | IC50 [1, 3] | CC50 at 48 h [2] | IC50 [1]
C#CCOc1ccc(/C=C/C(=O)Nc2ccccc2-c2n[nH]c(C)n2)cc1OC [Example 2, (E)-3-(3-methoxy-4-(prop-2-yn-1-yloxy)phenyl)-N-(2-(5-methyl-1H-1,2,4-triazol-3-yl)phenyl)acrylamide] | 10.4 µM | > 300 µM | –
C#CCOc1ccc(/C=C/C(=O)Nc2ccc(Cl)c(Cl)c2)cc1OC [Example 7, (E)-N-(3,4-dichlorophenyl)-3-(3-methoxy-4-(prop-2-yn-1-yloxy)phenyl)acrylamide] | 1.97 µM | 62.5 µM | –
C#CCOc1ccc(/C=C/C(=O)Nc2ccccc2)cc1OC [Example 8, (E)-3-(3-methoxy-4-(prop-2-yn-1-yloxy)phenyl)-N-phenylacrylamide] | – | 109 µM | 5.33 µM
C#CCOc1ccc(/C=C/C(=O)Nc2ccccc2-c2nn[nH]n2)cc1OC [Example 16, (E)-N-(2-(2H-tetrazol-5-yl)phenyl)-3-(3-methoxy-4-(prop-2-yn-1-yloxy)phenyl)acrylamide] | 22.3 µM | 107 µM | –
C#CCOc1ccc(/C=C/C(=O)Nc2ccccc2-c2ncon2)cc1OC [Example 17, (E)-N-(2-(1,2,4-oxadiazol-3-yl)phenyl)-3-(3-methoxy-4-(prop-2-yn-1-yloxy)phenyl)acrylamide] | 31.6 µM | > 300 µM | –
C#CCOc1ccc(/C=C/C(=O)Nc2ccccc2-c2noc(C)n2)cc1OC [Example 18, (E)-3-(3-methoxy-4-(prop-2-yn-1-yloxy)phenyl)-N-(2-(5-methyl-1,2,4-oxadiazol-3-yl)phenyl)-acrylamide] | 17.2 µM | 151 µM | –
C#CCOc1ccc(/C=C/C(=O)Nc2ccccc2-c2nnco2)cc1OC [Example 21, (E)-N-(2-(1,3,4-oxadiazol-2-yl)phenyl)-3-(3-methoxy-4-(prop-2-yn-1-yloxy)phenyl)acrylamide] | 25 µM | > 300 µM | –
C#CCOc1ccc(/C=C/C(=O)Nc2ccccc2-c2cnn(C)c2)cc1OC [Example 22, (E)-3-(3-methoxy-4-(prop-2-yn-1-yloxy)phenyl)-N-(2-(1-methyl-1H-pyrazol-4-yl)phenyl)-acrylamide] | – | 240 µM | 16.4 µM
C#CCOc1ccc(/C=C/C(=O)Nc2ccccc2-c2cn[nH]c2)cc1OC [Example 24, (E)-N-(2-(1H-pyrazol-4-yl)phenyl)-3-(3-methoxy-4-(prop-2-yn-1-yloxy)phenyl)acrylamide] | 13 µM | 41.4 µM | –
C#CCOc1ccc(/C=C/C(=O)Nc2ccccc2-c2c[nH]cn2)cc1OC [Example 25, (E)-N-(2-(1H-imidazol-4-yl)phenyl)-3-(3-methoxy-4-(prop-2-yn-1-yloxy)phenyl)acrylamide] | 45.5 µM | > 300 µM | –
C#CCOc1ccc(/C=C/C(=O)Nc2ccccc2C(=O)NS(C)(=O)=O)cc1OC [Example 27, (E)-2-(3-(3-methoxy-4-(prop-2-yn-1-yloxy)phenyl)acrylamido)-N-(methylsulfonyl)benzamide] | 21.4 µM | 120 µM | –
C#CCOc1ccc(/C=C/C(=O)Nc2ccccc2-c2nc(C)no2)cc1OC [Example 28, (E)-3-(3-methoxy-4-(prop-2-yn-1-yloxy)phenyl)-N-(2-(3-methyl-1,2,4-oxadiazol-5-yl)phenyl)acryl-amide] | 11.6 µM | 146 µM | –

Second part, led by results:

IC50 [1, 3] | Structure (SMILES) | CC50 at 48 h [2] | IC50 [1]
10.9 µM | C#CCOc1ccc(/C=C/C(=O)Nc2ccccc2F)cc1OC [Example 1, (E)-N-(2-fluorophenyl)-3-(3-methoxy-4-(prop-2-yn-1-yloxy)phenyl)acrylamide] | > 300 µM | –
3.94 µM | C#CCOc1ccc(/C=C/C(=O)Nc2ccccc2Cl)cc1OC [Example 3, (E)-N-(2-chlorophenyl)-3-(3-methoxy-4-(prop-2-yn-1-yloxy)phenyl)acrylamide] | 71.1 µM | –
4.32 µM | C#CCOc1ccc(/C=C/C(=O)Nc2ccccc2Br)cc1OC [Example 4, (E)-N-(2-bromophenyl)-3-(3-methoxy-4-(prop-2-yn-1-yloxy)phenyl)acrylamide] | 323 µM | –
10.6 µM | C#CCOc1ccc(/C=C/C(=O)Nc2ccccc2C)cc1OC [Example 5, (E)-3-(3-methoxy-4-(prop-2-yn-1-yloxy)phenyl)-N-(o-tolyl)acrylamide] | 369 µM | –
11.4 µM | C#CCOc1ccc(/C=C/C(=O)Nc2ccccc2C#N)cc1OC [Example 6, (E)-N-(2-cyanophenyl)-3-(3-methoxy-4-(prop-2-yn-1-yloxy)phenyl)acrylamide] | > 300 µM | –
1.94 µM | C#CCOc1ccc(/C=C/C(=O)N2CCC(C(=O)OC)c3ccccc32)cc1OC (stereo not shown) [Example 9, methyl (E)-1-(3-(3-methoxy-4-(prop-2-yn-1-yloxy)phenyl)acryloyl)-1,2,3,4-tetrahydroquinoline-4-carboxylate] | 25.5 µM | –
6.04 µM | C#CCOc1ccc(/C=C/C(=O)N2CCCc3ccccc32)cc1OC [Example 10, (E)-1-(3,4-dihydroquinolin-1(2H)-yl)-3-(3-methoxy-4-(prop-2-yn-1-yloxy)phenyl)prop-2-en-1-one] | 66.4 µM | –
7.07 µM | C#CCOc1ccc(/C=C/C(=O)N2CCNc3ccccc32)cc1OC [Example 11, (E)-1-(3,4-dihydroquinoxalin-1(2H)-yl)-3-(3-methoxy-4-(prop-2-yn-1-yloxy)phenyl)prop-2-en-1-one] | 104 µM | –
10.2 µM | C#CCOc1ccc(/C=C/C(=O)N2CCOc3ccccc32)cc1OC [Example 12, (E)-1-(2,3-dihydro-4H-benzo[b][1,4]oxazin-4-yl)-3-(3-methoxy-4-(prop-2-yn-1-yloxy)phenyl)prop-2-en-1-one] | 335 µM | –
10.4 µM | C#CCOc1ccc(/C=C/C(=O)N2CCC(O)c3ccccc32)cc1OC (stereo not shown) [Example 14, (E)-1-(4-hydroxy-3,4-dihydroquinolin-1(2H)-yl)-3-(3-methoxy-4-(prop-2-yn-1-yloxy)phenyl)prop-2-en-1-one] | 48.9 µM | –
25.2 µM | C#CCOc1ccc(/C=C/C(=O)n2nc(O)c3ccccc32)cc1OC [Example 15, (E)-1-(3-hydroxy-1H-indazol-1-yl)-3-(3-methoxy-4-(prop-2-yn-1-yloxy)phenyl)prop-2-en-1-one] | 304 µM | –
19.7 µM | C#CCOc1ccc(/C=C/C(=O)Nc2ccccc2-c2noc(=O)[nH]2)cc1OC [Example 19, (E)-3-(3-methoxy-4-(prop-2-yn-1-yloxy)phenyl)-N-(2-(5-oxo-4,5-dihydro-1,2,4-oxadiazol-3-yl)phenyl)acrylamide] | 122 µM | –
26.3 µM | C#CCOc1ccc(/C=C/C(=O)Nc2ccccc2-n2cnc(C)n2)cc1OC [Example 23, (E)-3-(3-methoxy-4-(prop-2-yn-1-yloxy)phenyl)-N-(2-(3-methyl-1H-1,2,4-triazol-1-yl)phenyl)acryl-amide] | 104 µM | –
13.5 µM | C#CCOc1ccc(/C=C/C(=O)Nc2ccccc2-c2cn(C)cn2)cc1OC [Example 26, (E)-3-(3-methoxy-4-(prop-2-yn-1-yloxy)phenyl)-N-(2-(1-methyl-1H-imidazol-4-yl)phenyl)acrylamide] | 190 µM | –
